{"source": "paper PMC10296061", "about": "“Inhibition of the Mitochondrial Carnitine/Acylcarnitine Carrier by Itaconate through Irreversible Binding to Cysteine 136: Possible Pathophysiological Implications” (Biomolecules, 2023)", "key": {"CAC C155A mutant": {"target": "T1, CAC C155A mutant (Rattus norvegicus, UniProt P97521, C155A)", "T1 construct": "made in house; host or cells: E. coli C0214", "T1 sequence (P97521 1-301 C155A)": "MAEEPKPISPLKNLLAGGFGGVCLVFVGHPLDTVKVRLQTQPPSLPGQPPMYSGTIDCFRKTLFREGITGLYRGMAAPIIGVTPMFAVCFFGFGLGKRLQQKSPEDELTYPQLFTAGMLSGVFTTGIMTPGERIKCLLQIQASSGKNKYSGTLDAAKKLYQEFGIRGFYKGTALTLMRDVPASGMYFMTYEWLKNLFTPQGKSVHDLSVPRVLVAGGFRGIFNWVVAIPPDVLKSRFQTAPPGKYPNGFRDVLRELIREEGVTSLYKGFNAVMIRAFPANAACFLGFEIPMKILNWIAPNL", "assay": "Transport assay in proteoliposomes, CAC mutant C155A", "assay_type": "biochemical", "settings": "read-out: IC50 for itaconate inhibition", "procedure": "(§1) As previously described, the pMW7-WTratCAC recombinant plasmid was used for over-expressing the rat CAC [22]. The overlap extension method was used to introduce the mutations; in the main time, NdeI and HindIII restriction sites were also added using appropriate primers. The PCR products were purified by the QIAEX II Gel Extraction Kit (QIAGEN) and digested with NdeI and HindIII and then ligated into the pMW7. All mutations were verified by DNA sequencing. The resulting plasmid constructs were transformed into E. coli C0214. Overexpression, inclusion body fraction preparation, and purification of the CAC proteins were performed as previously described. […]\n(§2) To test the transport activity of the CAC, 550 μL of proteoliposomes was passed through a Sephadex G-75 column to remove the external substrate. […] Transport rates were measured in 10 min, i.e., within the initial linear range of the time course, at 25 °C. After terminating the transport reaction, the external substrate was removed by chromatography on the Sephadex G-75 column, and the intraliposomal radioactivity was measured. […]\nFigure 3 Identification of residue responsible for itaconate inhibition. […] Transport activity of the WT (○), C136A (●), C155A (Δ), C23V/C58V/C89S/C155V/C283S (▲), and C23V/C58V/C89S/C136V/C155V/C283S (□) was measured by adding 0.1 mM [^3H]carnitine after treatment by itaconate at the indicated concentrations. […]"}, "CAC K135A mutant": {"target": "T2, CAC K135A mutant (Rattus norvegicus, UniProt P97521, K135A)", "T2 construct": "made in house; host or cells: E. coli C0214", "T2 sequence (P97521 1-301 K135A)": "T1 sequence (P97521 1-301 C155A) with K135A, A155C", "assay": "Transport assay in proteoliposomes, CAC mutant K135A", "assay_type": "biochemical", "settings": "read-out: IC50 for itaconate inhibition", "procedure": "as §1, §2\nFigure 9 Dose–response analysis of inhibition by itaconate of WT protein (○) and the K135A (●) mutant was performed by measuring the transport activity with or without itaconate treatment. […] The data are expressed as a percent of the own controls and are means ± SD from three independent experiments."}}, "note": "Residue numbers refer to the chain shown, from its start."}
{"smiles": "C=C(CC(=O)O)C(=O)O", "note": "[itaconate]", "values": [{"measurement": "IC50", "setting": "CAC C155A mutant", "result": "3.8 ± 0.64", "unit": "mM"}, {"measurement": "IC50", "setting": "CAC K135A mutant", "result": "16 ± 2.6", "unit": "mM"}]}
